According to ChEMBL document CHEMBL1127906, “Design and synthesis of novel muscarinic agonists containing the 1,2,4-triazine ring as an ester bioisostere” (Bioorg Med Chem Lett, 1994):

Assays:
[1] = target: Muscarinic acetylcholine receptor; assay: Ability to inhibit [3H]oxotremorine-M (OXO-M) binding in rat cerebral cortex; type: tissue-based
[2] = target: Muscarinic acetylcholine receptor (Rattus norvegicus) (UniProt P08482+P08483+P08485+P08911+P10980); assay: Ratio of IC50 values for inhibition of QNB and OXO-M was measured for efficacy of the compound
[3] = target: Muscarinic acetylcholine receptor; assay: Ability to inhibit [3H]quinuclidinyl benzilate(QNB) binding in rat cerebral cortex, activity expressed as IC50.; type: tissue-based

Row | Compound | IC50 [1] | Ratio [2] | IC50 [3]
1 | COc1nncc([C@H]2CN3CC[C@H]2C3)n1 | 140 nM | 17 | 2400 nM
2 | CSc1nncc([C@H]2CN3CC[C@H]2C3)n1 | 290 nM | 4.5 | 1300 nM
3 | Cc1noc([C@H]2CN3CC[C@H]2C3)n1 | 2.8 nM | 360 | 1000 nM
4 | CCc1nncc([C@H]2CN3CC[C@H]2C3)n1 | 46 nM | 9 | 410 nM
5 | Nc1nncc([C@H]2CN3CC[C@H]2C3)n1 | 2.1 nM | 460 | 990 nM
6 | Cc1nncc(C23CCCN(CC2)C3)n1 (stereo not given) | 33 nM | 55 | 1800 nM
7 | Cc1nncc(C2CN3CCC2CC3)n1 (stereo not given) | 4 nM | 56 | 225 nM
8 | Cc1nncc([C@H]2CN3CC[C@H]2C3)n1 | 3.9 nM | 105 | 410 nM
9 | c1nncc([C@H]2CN3CC[C@H]2C3)n1 | 3.8 nM | 370 | 1400 nM
10 | Cc1nncc(C23CCN(CC2)C3)n1 | 70 nM | 59 | 4100 nM
